Columns and labels:
[1] = tested on: S. aureus (ATCC#25923); test: Survival of bacteria under cycled high/low NO gas exposure (FIG. 6); type: cell-based; settings: 160 ppm NO gas 30 minutes then 20 ppm 3.5 hours, cycled every 4 hours for 24 hours; compared to air
Description: (§1) The effectiveness of the intermittent high dose delivery of nitric oxide gas in combating microorganisms was tested and verified. Briefly, the experimental methods were as follows. Inoculums of varying bacteria was prepared to a suspension of 2.5×10^8 cfu/ml, and diluted 1:1000 in sterile normal saline. Three milliliters of the inoculums were used per well in a sterile culture place. Exposure of the inoculums were performed in an exposure chamber, which has been described for example, in Ghafarri, A. et al., “A direct nitric oxide gas delivery system for bacterial and mammalian cell cultures,” Nitric Oxide. 12(3):129-40 (May 2005), which is hereby incorporated by reference as if fully set forth herein. The inoculums were exposed to 160 ppm of NO gas at a flow rate of 2.5 liters per minute for 30 minutes followed by exposure to 20 ppm of NO gas for 3.5 hours. The exposure to high and low concentrations of NO gas was repeatedly cycled every 4 hours for 24 hours. At various times (e.g., 0, 4, 8, and 12 hours), samples were taken and plated to determine the survivability of the bacteria as determined by counting cfu/ml.
(§2) FIGS. 6-9 show the survival of various bacteria used in the experiment with NO gas compared to exposure to air as control.

[2] = tested on: E. coli; test: Survival of bacteria under cycled high/low NO gas exposure (FIG. 9); type: cell-based; settings: 160 ppm NO gas 30 minutes then 20 ppm 3.5 hours, cycled every 4 hours for 24 hours; compared to air
Description: as §1, §2

[3] = tested on: mycothiol in wild type M. smegmatis; test: Mycothiol level by HPLC after NO gas exposure (FIG. 11); type: cell-based, Mycobacterium smegmatis; settings: 400 ppm NO gas, compared to exposure to air
Description: Further experiments were conducted to assay and measure the mycothiol level using HPLC in wild type M. smegmatis after exposure to 400 ppm NO gas and were compared to mycothiol level after exposure to air.

[4] = tested on: P. aeruginosa (ATCC#27853); test: Survival of bacteria under cycled high/low NO gas exposure (FIG. 7); type: cell-based; settings: 160 ppm NO gas 30 minutes then 20 ppm 3.5 hours, cycled every 4 hours for 24 hours; compared to air
Description: as §1, §2

[5] = tested on: P. aeruginosa (clinical strain from Cystic Fibrosis); test: Survival of bacteria under cycled high/low NO gas exposure (FIG. 8); type: cell-based; settings: 160 ppm NO gas 30 minutes then 20 ppm 3.5 hours, cycled every 4 hours for 24 hours; compared to air
Description: as §1, §2

[6] = tested on: Mycobacteria; test: Sensitivity of various microorganisms to NO gas damage; type: cell-based; settings: compared with various other microorganisms
Description: (§3) Additional studies were performed to test the hypothesis that the effect of NO gas in killing microorganisms is related to thiol function. […] This may be due to Mycobacteria having an exceptional thiol, mycothiol, that maintains the redox balance in the cell and protects the cell from nitrosative and oxidative stress. In order to test this hypothesis, sensitivities to NO gas was compared between mycothiol-deficient Mycobacterium smegmatis Mutant MshA to its wild type counterpart, mc^2 155 by exposing both strains to 200 ppm of NO gas. MshA is an enzyme needed in mycothiol biosynthesis.

[7] = tested on: mycothiol-deficient Mycobacterium smegmatis Mutant MshA; test: Survival of mycothiol-deficient mutant versus wild type on exposure to NO gas (FIG. 10); type: cell-based; settings: 200 ppm NO gas; wild type counterpart mc^2 155
Description: as §3

Structure (SMILES): [N]=O [NO gas, nitric oxide]
- survival of S. aureus (cfu/ml) [1]: effective method of killing the bacteria
- survival of E. coli (cfu/ml) [2]: effective method of killing the bacteria
- level of mycothiol in the mycobacterium [3]: reduced compared to exposure to air
- survival of P. aeruginosa ATCC#27853 (cfu/ml) [4]: effective method of killing the bacteria
- survival of P. aeruginosa clinical strain from Cystic Fibrosis (cfu/ml) [5]: effective method of killing the bacteria
- sensitivity of Mycobacteria to NO gas damage [6]: less sensitive
- sensitivity of MshA mutant to NO gas versus wild type [7]: more sensitive
- time to kill MshA mutant versus wild type [7]: killed in less time than its wild type counterpart

Source: patent publication US7955294B2, “Intermittent dosing of nitric oxide gas” (Sensormedics Corporation, priority 2004, dated 2011)
